Laboratory results published in PMC5365648, “Pharmacokinetics of the Novel Echinocandin CD101 in Multiple Animal Species” (Antimicrobial Agents and Chemotherapy, 2017).
Starred links: 1 amine or outer side, 2 acyl side, 3 side chain; linkers in the order of their positions; H or OH if unused. Positions of bridges follow the written chain, without caps; N, C: chain ends. Non-standard residues stand in square brackets, D forms with d. Residues, ends and D or L forms follow the SMILES beside them. *: point of attachment. pTerphenylCO(4''-OnC5H11) = CCCCCOc1ccc(-c2ccc(-c3ccc(C(=O)*)cc3)cc2)cc1; Orn(4R-OH,5R-OH) = O=C([C@H](C[C@@H](O)[C@@H](O)N[*:3])N[*:1])[*:2]; hTyr(3S-OH,4S-OH) = N[C@H](C(=O)O)[C@H](O)[C@@H](O)c1ccc(O)cc1; Pro(3S-OH,4S-Me) = C[C@H]1CN[C@H](C(=O)O)[C@H]1O; Hyp = O=C(O)[C@@H]1C[C@@H](O)CN1

What was measured:
[1] = ref [13]; cited from earlier work
Source text: In the case of brain concentrations, there was little difference across all the collection intervals. Given the relatively low concentrations and small differences across times, measured concentrations may reflect contamination from residual whole blood during the collec ...

[2] = radiolabeled drug, bile duct-cannulated rats, ref [14], cited from earlier work
Procedure: In that study, which utilized radiolabeled anidulafungin in bile duct-cannulated rats, 94.8% of the radioactive dose was accounted for through 168 h (or 7 days). […] In a similar study of CD101 conducted with nonradiolabeled material, no biotransformati ...

[3] = for CD101 the effective half-life (covers the majority of the AUC), ref [10]; cited from earlier work
Procedure: The half-life of CD101 in human is about 3-fold longer (about 90 h) than that of anidulafungin (about 30 h) ([10]). It should be noted that 90 h is the effective half-life of CD101 (i.e., the half-life that covers the majority of the AUC), with a longer, later-phase half-life evident at lower concentration ...

[4] = Chimpanzee pharmacokinetics, i.v. infusion; format: in vivo, chimpanzees; conditions: in vivo, iv, female chimpanzees, single 1 mg/kg i.v. infusion (1 h), plasma, LC-MS/MS, noncompartmental, n = 2
Procedure: A single 1-mg/kg dose of CD101 or anidulafungin was administered by i.v. infusion (1 h) to female chimpanzees (n = 2/group), and blood samples (via peripheral vein) were drawn for plasma processing at the midpoint of infusion, at the end of infusion, at 2, 4, 8, 12, 24, 48, and 72 h postdose, and on days 5, 7, and 10 postdose.
(§1) For each of the pharmacokinetic studies, whole-blood samples (K3EDTA as anticoagulant) were collected and centrifuged within 30 min of collection. The resulting plasma was harvested and stored at −20°C until analysis. Tissue samples were homogenized by a bead-based homogenizer following the addition of deionized water to excised tissue in a 2:1 (vol/wt) ratio and stored at −20°C until analysis. Prior to analysis, plasma or homogenized tissue samples were quenched with acetonitrile (3:1, acetonitrile-plasma or tissue ratio) containing an appropriate internal standard (isotopically labeled d9-CD101 [mouse and rat] or a structural analog [dog, monkey, and chimpanzee]). Plasma and tissue homogenate concentrations (quantified against calibration standards processed the same way) were determined by reverse-phase, gradient liquid chromatography with tandem mass spectrometric detection (LC-MS/MS) using an AB-SCIEX API 3200Q/4000 mass spectrometry system. Calibration standard ranges were the following: 0.400 (lower limit of quantitation, [LLOQ]) to 200 μg/ml (CD101, mouse), 0.040 (LLOQ) to 10 μg/ml (anidulafungin, mouse), 0.002 (LLOQ) to 10 μg/ml (CD101, rat), 0.005 (LLOQ) to 10 μg/ml (anidulafungin, rat), 0.050 (LLOQ) to 10 μg/ml (CD101, dog), 0.020 (LLOQ) to 10 μg/ml (anidulafungin, dog), 0.010 (LLOQ) to 10 μg/ml (CD101, monkey), 0.001 (LLOQ) to 10 μg/ml (anidulafungin, monkey), 0.015 (LLOQ) to 10 μg/ml (CD101, chimpanzee), and 0.015 (LLOQ) to 10 μg/ml (anidulafungin, chimpanzee). When necessary, dilutions with blank matrix were made for samples that quantified above the upper limit of quantitation. The methods used in the analysis were qualified as fit for purpose: calibration standards were matrix matched with the exception that human plasma calibration standards were used to analyze chimpanzee plasma samples due to the rarity of blank chimpanzee plasma, and, for each analytical batch, triplicate calibration standards were included at the beginning, approximately in the middle, and at the end of the batch. Following analysis, quantitation was carried out by a calibration curve comprising the analyte/internal standard area ratio versus concentration. Analytical batch acceptance followed the general guidance that triplicate standards/quality controls be within ±20% for accuracy (percentage of nominal concentration) and ≤20% for precision (percent coefficient of variation).
(§2) Pharmacokinetic parameters were calculated by noncompartmental analysis using Phoenix WinNonlin (version 6.3; Pharsight, Mountain View, CA) from either individual or mean (mouse) concentration-time profiles. An unpaired t test was used to compare mean exposures from male and female rats.

[5] = Mouse pharmacokinetics, i.v. bolus; conditions: in vivo, iv, male ICR (CD-1) mice, single 1 mg/kg slow i.v. bolus, plasma, LC-MS/MS, noncompartmental from mean profile, n = 3/time point
Procedure: A single 1-mg/kg dose of CD101 or anidulafungin was administered by slow i.v. bolus (∼2 min) to male ICR (CD-1) mice (n = 3/group/time point). Blood samples (via cardiac puncture) were collected for plasma processing predose and at 0.083 (5 min), 0.5, 1, 4, 8, 24, 48, and 72 h postdose. PK profiles were generated based on mean results from the three animals sampled at each time point. In another study, a single 1-, 4-, or 16-mg/kg dose of CD101 was administered by i.p. injection to female ICR (CD-1) mice (n = 3/time point/dose), and blood samples (via cardiac puncture) were drawn for plasma processing at 1, 3, 6, 12, 24, 48, 72, and 96 h postdose.
as §1, §2

[6] = Cynomolgus monkey pharmacokinetics, i.v. bolus; set-up: species or system cynomolgus monkeys; conditions: in vivo, iv, cynomolgus monkeys, single 2.8 mg/kg slow i.v. bolus, plasma, LC-MS/MS, n = 3
Procedure: A single dose of 2.13 mg/kg CD101 or 2.8 mg/kg anidulafungin was administered by slow i.v. bolus (∼10 min) to cynomolgus monkeys (n = 3/group), and blood samples (via peripheral vein) were drawn for plasma processing at 0.167, 0.5, 1, 3, 8, 12, 24, 48, and 72 h postdose.
as §1, §2

Molecule | Tissue/plasma AUC ratio, kidney [1] | Tissue/plasma AUC ratio, liver [1] | Tissue/plasma AUC ratio, lung [1] | radioactive dose accounted for ([2]; through 168 h (7 days)) | drug-derived radioactivity recovered in bile, % of dose ([2]; through 168 h) | drug-derived radioactivity recovered in carcass, % of dose ([2]; through 168 h) | drug-derived radioactivity recovered in feces, % of dose ([2]; through 168 h) | radioactivity recovered in urine ([2]; through 168 h) | half-life in human [3] | half-life [4] | clearance ([4]; read-out: CL (clearance)) | half-life [5] | clearance ([5]; read-out: CL (clearance)) | half-life [6]
micafungin | 3.2 | 7.8 | 3.6 |  |  |  |  |  |  |  |  |  |  | 
caspofungin | 5.5 | 10.2 | 1.2 |  |  |  |  |  |  |  |  |  |  | 
CCCCCOc1ccc(-c2ccc(-c3ccc(C(=O)N[C@H]4C[C@@H](O)[C@@H](O)NC(=O)[C@@H]5[C@@H](O)[C@@H](C)CN5C(=O)[C@H]([C@@H](C)O)NC(=O)[C@H]([C@H](O)[C@@H](O)c5ccc(O)cc5)NC(=O)[C@@H]5C[C@@H](O)CN5C(=O)[C@H]([C@@H](C)O)NC4=O)cc3)cc2)cc1 [anidulafungin] ({pTerphenylCO(4''-OnC5H11)}-[Orn(4R-OH,5R-OH)]T[Hyp][hTyr(3S-OH,4S-OH)]T[Pro(3S-OH,4S-Me)]; lactam 1-C) | 10.7 | 12.4 | 10.4 | 94.8% | 33.9% | 40.4% | 17.1% | 2.94% | about 30 h | 30 h | 0.42 mL/min/kg | 19 h | 0.21 mL/min/kg | 8 h
